Target: Metallo-beta-lactamase type 2 (Klebsiella pneumoniae, UniProt C7C422)
Test: Competitive inhibition of NDM-1 (unknown origin) using penicillin G as substrate by Michaelis-Menten equation based kinetic analysis

Chain of Metallo-beta-lactamase type 2 (C7C422 whole entry): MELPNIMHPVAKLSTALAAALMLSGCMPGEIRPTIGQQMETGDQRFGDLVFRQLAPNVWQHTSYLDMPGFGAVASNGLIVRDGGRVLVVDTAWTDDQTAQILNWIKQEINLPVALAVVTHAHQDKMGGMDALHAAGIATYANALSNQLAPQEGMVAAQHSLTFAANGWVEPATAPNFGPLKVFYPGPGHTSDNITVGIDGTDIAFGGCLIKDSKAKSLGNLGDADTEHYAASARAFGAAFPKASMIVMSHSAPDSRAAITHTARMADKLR

Compound | Ki
N#Cc1c(-c2ccccc2)c(-c2ccccc2)n(Cc2ccccc2)c1NC(=O)c1ccccc1 | 9 µM
N#Cc1c(-c2ccccc2)c(-c2ccccc2)n(Cc2ccccc2)c1/N=C/c1ccccc1 | 3.2 µM
N#Cc1c(-c2ccccc2)c(-c2ccccc2)n(Cc2ccccc2)c1/N=C/c1cccs1 | 1.7 µM
COC(=O)c1ccc(/C=N/c2c(C#N)c(-c3ccccc3)c(-c3ccccc3)n2Cc2ccccc2)cc1 | 34 µM
N#Cc1c(-c2ccccc2)c(-c2ccccc2)n(Cc2ccccc2)c1/N=C/c1ccc(O)cc1 | 1.3 µM
